From the NIST ThermoML archive (doi:10.1021/je900210h)
“And” between values parts separate entries of the source, which are not always exact repeats. Equal values may be shown once. Numbers after ± are expanded uncertainties.

Details: Fluid (supercritical or subcritical phases), Coaxial cylinder method

FCC(F)(F)F [1,1,1,2-tetrafluoroethane]
Details	thermal conductivity
379.09 K, 4452 kPa	0.0625 ± 0.0027 W/m/K
379.09 K, 4460 kPa	0.0627 ± 0.0026 W/m/K
379.09 K, 4464 kPa	0.063 ± 0.003 W/m/K
379.09 K, 4470 kPa	0.063 ± 0.003 W/m/K
379.09 K, 4475 kPa	0.063 ± 0.003 W/m/K
379.09 K, 4484 kPa	0.063 ± 0.003 W/m/K
379.09 K, 4500 kPa	0.0627 ± 0.0025 W/m/K
379.1 K, 4331 kPa	0.0441 ± 0.0022 W/m/K
379.17 K, 300 kPa	0.02023 ± 0.0012 W/m/K
379.22 K, 4504 kPa	0.0628 ± 0.0028 W/m/K
379.23 K, 4452 kPa	0.0608 ± 0.0027 W/m/K
379.23 K, 4453 kPa	0.0614 ± 0.0026 W/m/K
379.23 K, 4520 kPa	0.062 ± 0.003 W/m/K
379.23 K, 4530 kPa	0.0615 ± 0.0027 W/m/K
379.24 K, 4540 kPa	0.0609 ± 0.0024 W/m/K
379.24 K, 4547 kPa	0.0606 ± 0.0024 W/m/K
379.24 K, 4560 kPa	0.0601 ± 0.0024 W/m/K
379.24 K, 4570 kPa	0.0599 ± 0.0024 W/m/K
379.25 K, 4442 kPa	0.0593 ± 0.003 W/m/K
379.25 K, 4600 kPa	0.0591 ± 0.0024 W/m/K
379.25 K, 4620 kPa	0.0587 ± 0.0023 W/m/K
379.25 K, 4642 kPa	0.0584 ± 0.0023 W/m/K
379.26 K, 4431 kPa	0.0573 ± 0.0036 W/m/K
379.26 K, 4662 kPa	0.0579 ± 0.0023 W/m/K
379.26 K, 4680 kPa	0.0577 ± 0.0023 W/m/K
379.26 K, 4703 kPa	0.0575 ± 0.0023 W/m/K
379.26 K, 4739 kPa	0.0573 ± 0.0023 W/m/K
379.26 K, 4766 kPa	0.0573 ± 0.0023 W/m/K
379.26 K, 4806 kPa	0.057 ± 0.002 W/m/K
379.27 K, 4424 kPa	0.0559 ± 0.0041 W/m/K
379.28 K, 4414 kPa	0.0545 ± 0.0044 W/m/K
379.29 K, 4404 kPa	0.053 ± 0.005 W/m/K
379.3 K, 4396 kPa	0.0516 ± 0.0022 W/m/K
379.32 K, 4386 kPa	0.0501 ± 0.0021 W/m/K
379.33 K, 4376 kPa	0.0487 ± 0.0024 W/m/K
379.34 K, 4369 kPa	0.0478 ± 0.0022 W/m/K
379.36 K, 4355 kPa	0.0462 ± 0.002 W/m/K
379.37 K, 4346 kPa	0.0453 ± 0.0019 W/m/K
379.39 K, 4330 kPa	0.0437 ± 0.0019 W/m/K
379.4 K, 4309 kPa	0.0422 ± 0.0018 W/m/K
379.4 K, 4317 kPa	0.0427 ± 0.0019 W/m/K
379.4 K, 4838 kPa	0.0567 ± 0.0023 W/m/K
379.4 K, 4888 kPa	0.0562 ± 0.0023 W/m/K
379.41 K, 4932 kPa	0.0558 ± 0.0022 W/m/K
379.41 K, 5000 kPa	0.0554 ± 0.0022 W/m/K
379.41 K, 5051 kPa	0.055 ± 0.002 W/m/K
379.42 K, 4288 kPa	0.0408 ± 0.0019 W/m/K
379.43 K, 150 kPa	0.02035 ± 0.0012 W/m/K
379.43 K, 154 kPa	0.0231 ± 0.0012 W/m/K
379.43 K, 4282 kPa	0.0405 ± 0.0019 W/m/K
379.45 K, 4254 kPa	0.0389 ± 0.0017 W/m/K
379.47 K, 4224 kPa	0.0376 ± 0.0017 W/m/K
379.48 K, 4200 kPa	0.0367 ± 0.0017 W/m/K
379.5 K, 4165 kPa	0.0355 ± 0.0016 W/m/K
379.5 K, 4175 kPa	0.0358 ± 0.0017 W/m/K
379.72 K, 160 kPa	0.01996 ± 0.0012 W/m/K
381.53 K, 4627 kPa	0.0551 ± 0.0022 W/m/K
381.53 K, 4640 kPa	0.0555 ± 0.0023 W/m/K
381.53 K, 4650 kPa	0.056 ± 0.002 W/m/K
381.53 K, 4660 kPa	0.0562 ± 0.0023 W/m/K
381.53 K, 4670 kPa	0.0565 ± 0.0023 W/m/K
381.53 K, 4680 kPa	0.0565 ± 0.0023 W/m/K
381.54 K, 4700 kPa	0.0562 ± 0.0023 W/m/K
381.54 K, 4760 kPa	0.056 ± 0.002 W/m/K
381.55 K, 4612 kPa	0.0542 ± 0.0022 W/m/K
381.55 K, 4780 kPa	0.0558 ± 0.0023 W/m/K
381.55 K, 4800 kPa	0.0555 ± 0.0022 W/m/K
381.55 K, 4815 kPa	0.0553 ± 0.0022 W/m/K
381.56 K, 4600 kPa	0.0536 ± 0.0022 W/m/K
381.56 K, 4830 kPa	0.0551 ± 0.0022 W/m/K
381.56 K, 4860 kPa	0.0549 ± 0.0022 W/m/K
381.56 K, 4900 kPa	0.0542 ± 0.0022 W/m/K
381.56 K, 4920 kPa	0.0542 ± 0.0022 W/m/K
381.56 K, 4950 kPa	0.0543 ± 0.0022 W/m/K
381.56 K, 4982 kPa	0.0543 ± 0.0022 W/m/K
381.56 K, 5016 kPa	0.0543 ± 0.0022 W/m/K
381.56 K, 5068 kPa	0.0543 ± 0.0022 W/m/K
381.57 K, 5092 kPa	0.0539 ± 0.0022 W/m/K
381.57 K, 5125 kPa	0.0538 ± 0.0022 W/m/K
381.57 K, 5136 kPa	0.0538 ± 0.0022 W/m/K
381.57 K, 5169 kPa	0.0536 ± 0.0022 W/m/K
381.57 K, 5201 kPa	0.0536 ± 0.0022 W/m/K
381.58 K, 4569 kPa	0.0518 ± 0.0021 W/m/K
381.6 K, 4530 kPa	0.0495 ± 0.0021 W/m/K
381.61 K, 4516 kPa	0.0483 ± 0.0021 W/m/K
381.61 K, 4520 kPa	0.0487 ± 0.0021 W/m/K
381.61 K, 4525 kPa	0.049 ± 0.002 W/m/K
381.62 K, 4510 kPa	0.0478 ± 0.0021 W/m/K
381.63 K, 4490 kPa	0.0464 ± 0.002 W/m/K
381.63 K, 4500 kPa	0.0472 ± 0.002 W/m/K and 0.0468 ± 0.002 W/m/K
385.18 K, 4940 kPa	0.0522 ± 0.0021 W/m/K
